Laboratory results taken from paper PMC5218480 (PLoS ONE, 2017).

Tested on: MV-4-11 cells
Experiment: Gene expression microarray analysis (Affymetrix PrimeView) and GSEA
Format: cell-based, human
Conditions: gene C12orf56, chromosome 12 open reading frame 56; Azacitidine 1 mM; LIST F

Nc1ncn([C@@H]2O[C@H](CO)[C@@H](O)[C@H]2O)c(=O)n1 [azacitidine]
RFU, C12orf56 (ProbeSet 11735607_a_at): 185.59 RFU
